Where a name gives a salt, the structure may show the parent alone.

The test system of the experiment is Desulfovibrio desulfuricans G100A. Put plainly: microbe, parasite or virus in culture. Particulars: Desulfovibrio desulfuricans, G100A, read-out: % Inhib. (inhibition of sulfide production). It counts as cell-based.
For `Nc1ccc(N)c2c1C(=O)c1ccccc1C2=O` [1,4-Diaminoanthraquinone], the inhibition (as a rule, the relative decrease from the control value, in per cent) at 10 ppm was 27.5%.
In the case of `Cc1ccc(Nc2ccc(Nc3ccc(C)cc3)c3c2C(=O)c2ccccc2C3=O)cc1` [Solvent green 3, 1,4-Bis[(4-methylphenyl)amino]9,10-anthracenedione], the inhibition at 30 ppm came to 4.3%.
As to `O=C1c2ccc(O)c(O)c2C(=O)c2cccc(S(=O)(=O)O)c21` [Alizarin-5-sulfonic acid, 9,10-Dihydro-5,6-dihydroxy-9,10-dioxo-1-anthracenesulfonic acid], the inhibition at 30 ppm is 7.1%.
For `CNc1ccc(N)c2c1C(=O)c1ccccc1C2=O` [1-Amino-4-(methylamino)anthraquinone], the inhibition at 30 ppm is 0%.
For `CNc1cccc2c1C(=O)c1ccccc1C2=O` [1-(Methylamino)anthraquinone], the inhibition at 10 µg/mL is 19.1%.
Consider `Nc1cccc2c1C(=O)c1cc(Cl)c(Cl)cc1C2=O` [1-Amino-6,7-dichloroanthraquinone], for which the inhibition at 30 ppm came out at 22.9%.
Turning to `O=C1c2ccc(O)cc2C(=O)c2c1cc(S(=O)(=O)O)c(O)c2O` [Alizarin rubinol, 9,10-Dihydro-3,4,6-trihydroxy-9,10-dioxo-2-anthracenesulfonic acid], the inhibition at 30 ppm came out at 0%.
With `O=C1c2ccccc2C(=O)c2cc(Cl)ccc21` [2-Chloroanthraquinone], the inhibition at 30 ppm is 98.7%.
Take `Nc1c(S(=O)(=O)O)cc(Nc2ccc(S(=O)(=O)O)c(Nc3nc(Cl)nc(Nc4cccc(S(=O)(=O)O)c4)n3)c2)c2c1C(=O)c1ccccc1C2=O` [Reactive blue 5, 1-Amino-4[[3-[[4-chloro-6-[(3-sulfophenyl)amino]-1,3,5-triazin-2-yl]amino]-4-sulfophenyl]amino]-9,10-dihydro-9,10-dioxo-2-anthracenesulfonic acid]: the inhibition at 10 ppm was determined as 0%.
Consider `COc1cc(N)c2c(c1N)C(=O)c1ccccc1C2=O` [Disperse red 11, 1,4-Diamino-2-methoxyanthraquinone], for which the inhibition at 30 ppm is 0%.
Regarding `O=C1c2ccccc2C(=O)c2c1cc(S(=O)(=O)O)c(O)c2O` [Alizarin red S monohydrate, 3,4-Dihydroxy-9,10-dioxo-2-anthracenesulfonic acid], the inhibition at 10 ppm is 0%.
For the compound `O=C1c2ccccc2C(=O)c2c1cc(O)c(O)c2O` [Anthragallol, 1,2,3-trihydroxyanthraquinone], the inhibition at 30 ppm came out at 2.6%.
With `O=C(Nc1cccc2c1C(=O)c1cccc(Nc3cccc4c3C(=O)c3cccc(NC(=O)c5ccccc5)c3C4=O)c1C2=O)c1ccccc1` [4,5'-Dibenzamido-1,1'-dianthrimide, N,N'-[Iminobis(9,10-dihydro-9,10-dioxo-5,1-anthracenediyl)]bisbenzamide], the inhibition at 30 ppm turned out to be 0%.
With `O=C(O)c1ccccc1Nc1cccc2c1C(=O)c1cccc(Nc3ccccc3C(=O)O)c1C2=O` [Acridylic acid, 1,5-Bis(2-carboxyanilino)-9,10-anthracenedione], the inhibition at 10 ppm worked out at 33.5%.
For `CC(C)(C)c1ccc2c(c1)C(=O)c1ccccc1C2=O` [2-tert-butylanthraquinone], the inhibition at 30 ppm turned out to be 5.2%.
In the case of `CCNc1ccc(NCC)c2c1C(=O)c1ccccc1C2=O` [Sudan blue, 1,4-Bis(ethylamino)-9,10-anthracenedione], the inhibition at 30 ppm stood at 1.3%.
Regarding `Cc1cc(O)c2c(c1)C(=O)c1c(O)ccc(O)c1C2=O` [Helminthosporin, 1,5,8-Trihydroxy-3-methyl-9,10-anthracenedione], the inhibition at 10 ppm came out at 31.3%.
As for `Nc1c(Br)cc(O)c2c1C(=O)c1ccccc1C2=O` [1-Amino-2-bromo-4-hydroxyanthraquinone], the inhibition at 30 ppm was found to be 6.5%.
On to `O=C(Nc1ccc(Cl)c2c1C(=O)c1ccccc1C2=O)c1ccccc1` [1-Benzamido-4-chloroanthraquinone, N-(4-Chloro-9,10-dihydro-9,10-dioxo-1-anthracenyl)-benzamide], for which the inhibition at 30 ppm was 8.6%.
With `O=C1c2ccccc2C(=O)c2cc(S(=O)(=O)NCc3ccccc3)ccc21` [N-Benzyl-9,10-dihydro-9,10-dioxo-2-anthracenesulfonamide], the inhibition at 30 ppm amounted to 3.9%.
`O=C1c2ccc(O)cc2C(=O)c2c1ccc(O)c2O` [Anthrapurpurin, 1,2,7-Trihydroxyanthraquinone]: the inhibition at 10 ppm worked out at 37.5%.
As for `CCc1cc(CC)c(Nc2ccc(Nc3c(CC)cc(CC)cc3CC)c3c2C(=O)c2ccccc2C3=O)c(CC)c1` [1,4-Bis[(2,4,6-triethylphenyl)amino]-9,10-anthracenedione], the inhibition at 30 ppm worked out at 4.3%.
As for `O=C1c2c(Br)cc(Br)c(O)c2C(=O)c2c(O)c(Br)cc(Br)c21` [2,4,5,7-Tetrabromochrysazin, 2,4,5,7-Tetrabromo-1,8-dihydroxy-9,10-anthracenedione], the inhibition at 10 ppm was determined as 40.6%.
For `O=C1c2cccc(Cl)c2C(=O)c2cccc(Cl)c21` [1,5-Dichloroanthraquinone], the inhibition at 30 ppm stood at 100%.
As for `Nc1c(S(=O)(=O)O)ccc2c1C(=O)c1ccccc1C2=O` [1-Aminoanthraquinone-2-sulfonic acid, 1-Amino-9,10-dihydro-9,10-dioxo-2-anthracenesulfonic acid], the inhibition at 30 ppm was 37.5%.
On to `Cc1ccc(C)c2c1C(=O)c1ccccc1C2=O` [1,4-Dimethylanthraquinone], for which the inhibition at 30 ppm was determined as 5.2%.
As to `O=C1c2ccccc2C(=O)c2c(SBr)cccc21` [1-(Bromothio)anthraquinone], the inhibition at 30 ppm was found to be 6.5%.
As to `O=C(Nc1cccc2c1C(=O)c1cccc(NC(=O)c3ccccc3)c1C2=O)c1ccccc1` [1,5-Dibenzamidoanthraquinone, N,N'-(9,10-Dihydro-9,10-dioxo-1,5-anthracenediyl)-bisbenzamide], the inhibition at 30 ppm was determined as 0%.
As for `Nc1c(S(=O)(=O)O)cc(Br)c2c1C(=O)c1ccccc1C2=O` [1-Amino-4-bromo-9,10-dihydro-9,10-dioxo-2-anthracene-sulfonic acid, Na salt], the inhibition at 10 ppm was 4.3%.
As to `O=C1c2ccccc2C(=O)c2c1ccc(O[C@@H]1O[C@H](CO[C@@H]3OC[C@@H](O)[C@H](O)[C@H]3O)[C@@H](O)[C@H](O)[C@H]1O)c2O` [Ruberythric acid, 1-Hydroxy-2-[(6-O-β-D-xylopyranosyl-β-D-glucopyranosyl)oxy]-9,10-anthracenedione], the inhibition at 10 ppm is 29.7%.
As for `CCC(=O)Nc1ccc2c(c1)C(=O)c1ccccc1C2=O` [2-Propionamidoanthraquinone], the inhibition at 30 ppm was 10.4%.
Consider `O=C1c2ccccc2C(=O)c2c(O)c(O)cc(O)c21` [Purpurin, 1,2,4-Trihydroxyanthraquinone], for which the inhibition at 30 ppm turned out to be 55.7%.
Turning to `Oc1cccc2cc3cccc(O)c3c(O)c12` [1,8-Dihydroxyanthranol, 1,8-Dihydroxy-9-anthranol], the inhibition at 30 ppm was found to be 88.3%.
`CC(=O)Nc1ccc(Nc2cc(S(=O)(=O)O)c(N)c3c2C(=O)c2ccccc2C3=O)cc1` [Acid blue 40, 4-[[4-(Acetylamino)phenyl]amino]-1-amino-9,10-dihydro-9,10-dioxo-2-anthracenesulfonic acid, Na salt]: the inhibition at 10 ppm was found to be 12.5%.
`Cc1cc(Br)c2c(c1N)C(=O)c1ccccc1C2=O` [1-Amino-4-bromo-2-methylanthraquinone]: the inhibition at 10 µg/mL came to 8%.
Consider `Nc1cc2c(cc1O)C(=O)c1ccccc1C2=O` [2-Amino-3-hydroxyanthraquinone], for which the inhibition at 30 ppm was found to be 11.4%.
With `Cc1c(C)c(O)c2c(c1O)C(=O)c1ccccc1C2=O` [2,3-dimethyl-1,4-dihydroxyanthraquinone], the inhibition at 30 ppm is 5.7%.
With `O=c1c2ccccc2c(=O)c2c1cc(Cl)c1[nH]c3c([nH]c12)c(Cl)cc1c(=O)c2ccccc2c(=O)c13` [7,16-Dichloroindanthrone, 7,16-Dichloro-6,15-dihydro-5,9,14,18-anthrazinetetrone], the inhibition at 10 ppm is 43.8%.
As to `Nc1c(OCCOc2ccccc2)c(OCCOc2ccccc2)c(N)c2c1C(=O)c1ccccc1C2=O` [1,4-Diamino-2,3-bis(2-phenoxyethoxy)anthraquinone], the inhibition at 30 ppm amounted to 7.8%.
In the case of `O=C1c2ccccc2C(=O)c2c(O)cccc21` [1-Hydroxyanthraquinone], the inhibition at 10 ppm was 59.3%.
Take `O=C1c2ccccc2C(=O)c2c(O)c(S(=O)(=O)O)c(Oc3ccc(S(=O)(=O)O)cc3)c(O)c21` [2-Phenoxy quinizarin-3,4'-disulfonic acid, di K salt]: the inhibition at 10 ppm is 28.1%.
Regarding `O=C1c2cc(Cl)c(Cl)cc2C(=O)c2c(O)ccc(O)c21` [6,7-Dichloro-1,4-dihydroxyanthraquinone], the inhibition at 30 ppm was found to be 5.7%.
Consider `Cc1ccc(Nc2ccc(O)c3c2C(=O)c2ccccc2C3=O)c(S(=O)(=O)O)c1` [Solway purple R, 2-[(9,10-Dihydro-4-hydroxy-9,10-dioxo-1-anthracenyl)-amino]-5-methyl-benzenesulfonic acid, Na salt], for which the inhibition at 30 ppm is 9.1%.
On to `Cc1ccc2c(c1N)C(=O)c1ccccc1C2=O` [Disperse orange 11, 1-Amino-2-methylanthraquinone], for which the inhibition at 30 ppm was determined as 5.2%.
Consider `Nc1cccc2c1C(=O)c1cccc(Cl)c1C2=O` [5-Chloro-1-aminoanthraquinone], for which the inhibition at 10 ppm was determined as 57.1%.
Still for that read-out and setting: the same measure for `C=CS(=O)(=O)c1cccc(Nc2cc(S(=O)(=O)O)c(N)c3c2C(=O)c2ccccc2C3=O)c1` [Acid blue 215, 1-Amino-4-[[3-(ethenylsulfonyl)phenyl]-9,10-dihydro-9,10-dioxo]-2-anthracene sulfonic acid, monosodium salt]: 19.7%.
Same read-out and setting: the same measure for `O=C1c2cccc(O)c2C(=O)c2c(O)cc(CO)cc21` [Aloe-emodin, 1,8-Dihydroxy-3-(hydroxymethyl)-anthraquinone]: 43.8%; for `O=C1c2ccccc2C(=O)c2c(Nc3ccc(S(=O)(=O)O)cc3)c(Nc3ccc(S(=O)(=O)O)cc3)cc(O)c21` [Alizarin blue black B, 1,2-Bis[(4-sulfophenyl)amino]-4-hydroxy-anthraquinone]: 17.5%.
Regarding `COc1cc2c(cc1C)C(=O)c1ccccc1C2=O` [2-Methoxy-3-methyl-9,10-anthracenedione], the inhibition at 30 ppm stood at 5%.

For the origin of these results see patent US5385842A, “Anthraquinones as inhibitors of sulfide production from sulfate-reducing bacteria” (E. I. Du Pont de Nemours and Company, priority 1993, dated 1995).
